Measurements as given in patent US20240269157A1, “COMPOSITIONS AND METHODS FOR OVERCOMING MICROENVIRONMENT-MEDIATED RESISTANCE VIA E-SELECTIN TARGETING” (GLYCOMIMETICS, INC., priority 2021, published 2024).

Columns and labels:
[1] = target: T1, recombinant human E-selectin-Fc chimera (Homo sapiens, UniProt P16581); experiment: Adhesion of KG1 AML cells to E-selectin in vitro; type: cell-based
T1 construct: purchased R&D Systems 724-ES
Procedure: To further explore this hypothesis, the ability of Compound A to disrupt adhesion of KG1 AML cells to E-selectin was assessed using an in vitro assay. Recombinant human E-selectin-Fc chimera was purchased from R&D Systems (724-ES). KG1 AML cell line was purchased from ATCC (CRL-8031) and cultured in RPMI-1640 medium supplemented with 10% fetal bovine serum (FBS). Costar 96-well polystyrene medium binding assay plates were purchased from Corning (9017). 5-azacitidine (5-AZA) was purchased from Sigma-Aldrich (A2386). Calcein AM was purchased from Molecular Probes (C3100MP). FITC-conjugated antibody reactive with cutaneous lymphocyte antigen (HECA-452-FITC) was purchased from BD Pharmingen (555947).
The wells of a 96-well polystyrene plate were coated with 100 μL of 2 μg/mL recombinant human E-selectin-Fc chimera for 2 hours at 37° C., and then washed three times with Hank's Balanced Saline Solution (HBSS). KG1 cells were fluorescently labeled in culture medium with 3 μM Calcein AM for 60 minutes at 37° C., pelleted by centrifugation at 250×g for 10 minutes, then resuspended in HBSS to 2.5×10^5 cells per mL. Next, 2.5×10^4 cells were added to each well, and the cells were allowed to adhere for 45 minutes at room temperature. In some cases, cells were treated daily with 100 nM 5-azacitidine for 96 hours prior to labeling with Calcein AM and adhesion to E-selectin. Appropriate wells received 1 μL of 10 mM Compound A (final concentration in well: 100 μM) and after 30 minutes the wells were observed by fluorescence microscopy and pre-wash fluorescence measurements were taken using a FlexStation plate reader (excitation 485 nm, emission 538 nm, cutoff 530 nm). Subsequently, the wells were washed gently three times with HBSS and observations by fluorescence microscopy and fluorescence readings were repeated.

KG1 cells [2] = experiment: Global DNA methylation (5-mC) ELISA in KG1 cells; settings: 100 nM 5-AZA, 96 hours (untreated 0.33%)
Procedure: Prior to assessing the effect of 5-AZA on specific gene expression, its effect on global DNA methylation was assessed by specifically measuring levels of 5-methylcytosine (5-mC) in a colorimetric ELISA-like reaction. DNA was isolated from cell pellets using a DNA Isolation Kit for Cells and Tissues (Roche Catalog No. 11 814 770 001). DNA was quantified using a DNA Quantification Assay Kit (BioVision Catalog No. K539-200). Global DNA methylation was measured using the MethylFlash™ Global DNA Methylation (5-mC) ELISA Easy Kit (EpiGentek Catalog No. P-1030).
DNA was isolated and purified from cell pellets and evaluated for 5-mC levels.

KG1 AML tumor cells = experiment: KG1 AML mouse model survival; type: in vivo, NSG mice; settings: for median survival time (MST): Compound A 40 mg/kg i.p. qdx14, 5-azacitidine 5 mg/kg i.p. q3dx5
Procedure: A KG1 AML mouse model was also employed to determine whether the E-selectin antagonist Compound A could enhance the anti-tumor effect of 5-azacitidine. Female NSG mice (10 per cohort, six weeks of age) received i.v. injections of 5×10^6 KG1 AML tumor cells per mouse. Beginning 7 days post injection, mice were randomized into four cohorts and treated with either saline (i.p. (intraperitoneal), qdx14 (once daily for 14 days)), Compound A (40 mg/kg i.p. qdx14), 5-azacitidine (5 mg/kg i.p. q3dx5), or a combination of Compound A and 5-azacitidine. The efficacies of the treatments on survival were determined by the Kaplan-Meier estimator and log-rank statistics were used to test for significant differences in survival (FIG. 11). The median survival time (MST) of mice treated with 5-azacitidine was 88 days and statistically different from that of mice treated with saline (MST=69.5 days) or Compound A alone (MST=69 days). […] At study conclusion, (day 104 post tumor injection) 20% of mice treated with 5-azacitidine remained alive.

KG1 cells [3] = experiment: Flow cytometry of E-selectin-PE and HECA-452-FITC reactivity with KG1 cells; type: cell-based, human; settings: 100 nM 5-AZA
Procedure: The increased adhesion of KG1 cells to E-selectin following treatment with 5-AZA was further examined by flow cytometry. Cells were cultured for 96 hours in the presence or absence of 100 nM 5-AZA. The binding of E-selectin-PE (E-selectin-Fc chimera conjugated with R-phycoerythrin) to the cells was determined by flow cytometry. In addition, the reactivity of the cells with HECA-452 monoclonal antibody, which specifically reacts with sialyl Lewis A/X carbohydrate structures and is a surrogate marker of E-selectin ligand, was determined by flow cytometry.
Specifically, KG1 cells were centrifuged at 250×g for 10 minutes, washed with HBSS containing 0.1% bovine serum albumin (HBSS/BSA), and resuspended in HBSS/BSA to approximately 3×10^6 cells per mL. The cells were treated with Fc receptor blocker (Miltenyi Biotech) and 100 μL aliquots (3×10^5 cells) were added to 12×75 mm Falcon polypropylene tubes. Cells were treated with either 5 μL E-selectin-Fc-PE reagent or 20 μL HECA-452-FITC antibody, placed at 4° C. for 45 minutes, washed with 2 mL then again with 1 mL HBSS/BSA. Final cell pellets were resuspended in 500 μl HBSS/BSA and analyzed on an Attune N×T flow cytometer. E-selectin was conjugated with R-phycoerythrin using the PE/R-phycoerythrin conjugation kit—Lightning-Link (Abcam ab102918).

[4] = system: PDX AML (Flt3-ITD and WT1 mutations, sorafenib-resistant); experiment: PDX model (Flt3-ITD and WT1 mutations, sorafenib-resistant), CyTOF after 2 days; type: in vivo, mice
Procedure: To delineate the mechanism of E-selectin at the onset of drug-mediated changes in AML signaling signatures, another PDX model was employed (Flt3-ITD and WT1 mutations, sorafenib-resistant).
PDX mice with advanced AML (more than 20% human AML cells circulation in peripheral blood) were administered vehicle control, venetoclax (25 mg/kg)/HMA (5.5 mg/kg), Compound A (200 mg/kg), or a combination therapy for 2 days. After 2 days of bolus drug administration, mice were sacrificed and subjected to CyTOF analysis (FIGS. 9A-C). Single cell proteomics analysis by CyTOF determined that combinatorial treatment of Compound A with venetoclax/HMA diminished levels of Ki67, IDU, and pRb compared to vehicle control or venetoclax/HMA alone, resulting in decreased proliferation of AML blasts.

[5] = system: HUVECs co-cultured with AML cells; experiment: eNOS phosphorylation in HUVECs co-cultured with AML cells; type: cell-based; set-up: dose or concentration left out as unconfirmed
luc-MV4.11 cells = experiment: MV4.11 AML model survival; type: in vivo, NSG mice; settings: 40 mg/kg Compound A i.p., 100 mg/kg venetoclax oral, 14 days once daily
Procedure: To evaluate the efficacy of targeting E-selectin with Compound A in combination with venetoclax, an in vivo MV4.11 AML model was employed (FIG. 16).
luc-MV4.11 cells (5×10^6 cells/mouse) were transplanted into NSG mice. Mice were divided into four groups: vehicle treatment only; 40 mg/kg of Compound A (intraperitoneal, 14 day once daily); 100 mg/kg venetoclax (oral, 14 days once daily), and a combination of 40 mg/kg Compound A and 100 mg/kg venetoclax. Drug treatment was initiated on day 10 post-transplantation.

T1 sequence (P16581 with tags, fused parts or gaps limits assumed): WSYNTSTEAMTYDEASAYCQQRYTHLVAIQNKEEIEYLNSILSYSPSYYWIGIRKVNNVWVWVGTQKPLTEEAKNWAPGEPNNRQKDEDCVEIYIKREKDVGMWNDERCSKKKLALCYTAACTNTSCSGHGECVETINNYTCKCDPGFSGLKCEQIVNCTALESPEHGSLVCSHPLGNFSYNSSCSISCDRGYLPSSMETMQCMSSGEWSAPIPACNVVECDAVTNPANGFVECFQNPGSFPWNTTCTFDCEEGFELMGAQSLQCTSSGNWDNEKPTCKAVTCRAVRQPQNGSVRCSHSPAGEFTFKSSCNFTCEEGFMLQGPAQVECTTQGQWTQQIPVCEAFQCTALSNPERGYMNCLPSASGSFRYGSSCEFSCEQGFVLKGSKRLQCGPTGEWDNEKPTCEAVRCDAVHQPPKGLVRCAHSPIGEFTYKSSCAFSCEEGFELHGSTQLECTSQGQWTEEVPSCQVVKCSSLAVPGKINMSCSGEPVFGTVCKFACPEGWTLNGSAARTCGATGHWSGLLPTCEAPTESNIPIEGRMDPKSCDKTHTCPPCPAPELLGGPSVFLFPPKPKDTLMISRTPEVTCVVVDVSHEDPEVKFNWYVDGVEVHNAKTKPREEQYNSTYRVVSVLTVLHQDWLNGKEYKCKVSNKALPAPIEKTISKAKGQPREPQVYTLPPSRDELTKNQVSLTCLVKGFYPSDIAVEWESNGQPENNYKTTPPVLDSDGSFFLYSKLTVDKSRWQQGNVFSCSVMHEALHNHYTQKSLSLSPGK

Row | Compound | increase in adhesion to E-selectin ([1]; 100 nM 5-AZA 96 hours vs not treated) [%] | fluorescence units of adhered cells ([1]; KG1 cells treated for 96 hours with 100 nM 5-AZA) [fluorescence units] | level of 5-mC (KG1 cells [2]) [%] | median survival time (MST) (KG1 AML tumor cells) [days] | mice remaining alive at study conclusion (KG1 AML tumor cells; day 104 post tumor injection) [%] | increase in MFI, HECA-452 (KG1 cells [3]; 96 hours) [%] | increase in median fluorescence intensity, E-selectin-PE (KG1 cells [3]; 96 hours) [%] | increase in the percentage of cells reactive with E-selectin-PE (KG1 cells [3]; 96 hours) [%] | increase in the percentage of cells reactive with HECA-452 (KG1 cells [3]; 96 hours) [%] | percentage of cells reactive with HECA-452 (KG1 cells [3]; 96 hours (untreated 37.8%)) [%] | percentage of cells reactive with E-selectin-PE (KG1 cells [3]; 96 hours (untreated 38.4%)) [%] | MFI, HECA-452 (KG1 cells [3]; 96 hours (untreated 621)) | median fluorescence intensity (MFI), E-selectin-PE (KG1 cells [3]; 96 hours (untreated 940)) | fluorescence units after treatment of previously attached cells ([1]; 100 μM Compound A, 30 minutes, p=0.001) [fluorescence units] | oncogenic signaling pathways MAPK, p-S6, and STAT3 ([4]; Compound A added to venetoclax/HMA) | activation of PI3K and AKT in AML blasts and BM CD31+EC cells ([4]; mouse, in vivo) | eNOS phosphorylation in EC ([4]; mouse, in vivo) | phosphorylation of the enzyme eNOS [5] | median survival time (MST) (luc-MV4.11 cells) [days] | outcome of mice (KG1 AML tumor cells; All mice treated)
1 | Nc1ncn([C@@H]2O[C@H](CO)[C@@H](O)[C@H]2O)c(=O)n1 [5-azacitidine] | 57 | 560.6 | 0.12 | 88 | 20 | 26 | 38 | 38 | 27 | 47.9 | 52.9 | 783 | 1299 |  |  |  |  |  |  | 
2 | CCC1CC(C(=O)NCCNC(=O)CCOCCOCCOCCOCCOCCOCCOCCOCCOCCOCCOCCOC)C[C@@H](O[C@@H]2OC(CO)[C@H](O)C(O[C@@H](CC3CCCCC3)C(=O)O)C2NC(C)=O)[C@@H]1OC1O[C@@H](C)[C@H](O)C(O)[C@@H]1O (stereo partly drawn) [Compound A] |  |  |  | 69 |  |  |  |  |  |  |  |  |  | 55.2 | inhibited | reduced | decreased | attenuated | 39 | succumbed to progressive tumor growth
